Assay results as given in patent publication US20040219220A1, “Therapeutic agents” (priority 2001, published 2004).

Tests used:
[1] = Extruder barrel temperature profile: ibuprofen content and degradation products after melt extrusion (Example 24); type: physicochemical; conditions: up to a maximum extruder setting of 140 C
Experimental: The method set out in Example 1 was used. The extruder screw speed was set to a constant 600 rpm. The powder feed rate was also set to a constant value. to give a constant feed rate of powder into the extruder. The product of each trial was analysed to determine the level of the two major ibuprofen degradation products: 2-(4-isobutyrylphenyl) propionic acid (BTS 47711) and 4-isobutylacetophenone (BTS 40655).

[2] = Extruder temperature/throughput matrix: ibuprofen content and degradation products after melt extrusion (Example 25); type: physicochemical; conditions: 95 C to 130 C, 102 kg/hour to 216 kg/hour
Experimental: Further trials using the method of Example 1 but under process conditions as shown in Table 3 were conducted to determine the maximum output from the extruder by varying barrel temperature and powder feed rates, as shown in Table IIA.10.
Once the required extruder barrel temperature had been reached, the extruder was started and allowed to run for 15 minutes in order to equilibrate prior to sample collection.
Samples were collected for analysis to determine the level of degradation products formed.

ibuprofen degradation as a result of the melt extrusion process [1]: no evidence of ibuprofen degradation
degradation of ibuprofen over extruder barrel temperatures and throughputs [2]: no evidence of degradation
SMILES: CC(C)Cc1ccc(C(C)C(=O)O)cc1 (racemic) [ibuprofen]
